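Where inhibition never reached the appropriate level, the endpoint shown equals the highest concentration tested. Otherwise, values were interpolated linearly from a five-concentration, 48-hour dose response in 96-well plates. TGI denotes the concentration required for complete inhibition of growth.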
Assays:
Test in all cases: DTP human tumour cell line panel, 48 h
XF 498 CNS = system: XF 498 CNS
M19-MEL melanoma = system: M19-MEL melanoma
SF-539 CNS = system: SF-539 CNS
KM20L2 colon = system: KM20L2 colon
DMS 114 small cell lung = system: DMS 114 small cell lung
LXFL 529 NSCLC = system: LXFL 529 NSCLC
HOP-18 NSCLC = system: HOP-18 NSCLC
RXF-631 renal = system: RXF-631 renal
DMS 273 small cell lung = system: DMS 273 small cell lung
DLD-1 colon = system: DLD-1 colon
SNB-78 CNS = system: SNB-78 CNS
NCI-H226 lung = system: NCI-H226 lung

C#CC1(O)CCC2[C@@H]3CCc4cc(Oc5nc(F)nc(-c6c7ccccc7c(SCC)n6CCC)n5)ccc4C3CC[C@@]21C (stereo partly drawn)
TGI (XF 498 CNS): > 100 µM | TGI (M19-MEL melanoma): > 100 µM | TGI (SF-539 CNS): > 100 µM | TGI (KM20L2 colon): > 100 µM | TGI (DMS 114 small cell lung): > 100 µM | TGI (LXFL 529 NSCLC): > 100 µM | TGI (HOP-18 NSCLC): > 100 µM | TGI (RXF-631 renal): > 100 µM | TGI (DMS 273 small cell lung): > 100 µM | TGI (DLD-1 colon): > 100 µM | TGI (SNB-78 CNS): > 100 µM | TGI (NCI-H226 lung): 50.1 µM

c1ccc(SC23C4C5C6C4C2C6C53)nc1 (stereo not drawn)
TGI (M19-MEL melanoma): > 100 µM | TGI (SF-539 CNS): > 100 µM | TGI (KM20L2 colon): > 100 µM | TGI (DMS 114 small cell lung): > 100 µM | TGI (LXFL 529 NSCLC): > 100 µM | TGI (HOP-18 NSCLC): > 100 µM | TGI (RXF-631 renal): > 100 µM | TGI (DMS 273 small cell lung): > 100 µM | TGI (DLD-1 colon): > 100 µM | TGI (SNB-78 CNS): > 100 µM | TGI (NCI-H226 lung): > 100 µM

OC12c3ccccc3C1CCCCCCCCCC21OCCO1 (stereo not drawn)
TGI (M19-MEL melanoma): > 100 µM | TGI (SF-539 CNS): > 100 µM | TGI (KM20L2 colon): > 100 µM | TGI (DMS 114 small cell lung): > 100 µM | TGI (LXFL 529 NSCLC): > 100 µM | TGI (HOP-18 NSCLC): > 100 µM | TGI (DMS 273 small cell lung): > 100 µM | TGI (SNB-78 CNS): > 100 µM | TGI (NCI-H226 lung): > 100 µM

CCn1c2c(c3ccccc31)[C@@H](c1ccc(Cl)cc1)CC1C(=O)N(c3ccccc3)C(=O)C21 (stereo partly drawn)
TGI (XF 498 CNS): > 100 µM | TGI (M19-MEL melanoma): > 100 µM | TGI (SF-539 CNS): 97.1 µM | TGI (KM20L2 colon): > 100 µM | TGI (DMS 114 small cell lung): > 100 µM | TGI (LXFL 529 NSCLC): > 100 µM | TGI (HOP-18 NSCLC): > 100 µM | TGI (DMS 273 small cell lung): > 100 µM | TGI (DLD-1 colon): > 100 µM | TGI (SNB-78 CNS): > 100 µM | TGI (NCI-H226 lung): > 100 µM
